According to patent US20230024302A1, “2,3,5-TRISUBSTITUTED PYRAZOLO[1,5-A]PYRIMIDINE COMPOUNDS” (Arcus Biosciences, Inc., priority 2019, published 2023):
pIC50: −log10 of the molar value. Where two headings read alike, the source gives them in different places.

Columns and labels:
PI3Kγ (p120γ) = biological target: T1, PI3Kγ (p120γ) (Homo sapiens, UniProt P48736); test: Inhibition of PI3K kinase activity (ADP Glo), PI3Kγ; details: read-out: biochemical potency (PI3Kγ IC50)
T1 construct: purchased Promega V1761
T1 sequence (P48736 whole entry): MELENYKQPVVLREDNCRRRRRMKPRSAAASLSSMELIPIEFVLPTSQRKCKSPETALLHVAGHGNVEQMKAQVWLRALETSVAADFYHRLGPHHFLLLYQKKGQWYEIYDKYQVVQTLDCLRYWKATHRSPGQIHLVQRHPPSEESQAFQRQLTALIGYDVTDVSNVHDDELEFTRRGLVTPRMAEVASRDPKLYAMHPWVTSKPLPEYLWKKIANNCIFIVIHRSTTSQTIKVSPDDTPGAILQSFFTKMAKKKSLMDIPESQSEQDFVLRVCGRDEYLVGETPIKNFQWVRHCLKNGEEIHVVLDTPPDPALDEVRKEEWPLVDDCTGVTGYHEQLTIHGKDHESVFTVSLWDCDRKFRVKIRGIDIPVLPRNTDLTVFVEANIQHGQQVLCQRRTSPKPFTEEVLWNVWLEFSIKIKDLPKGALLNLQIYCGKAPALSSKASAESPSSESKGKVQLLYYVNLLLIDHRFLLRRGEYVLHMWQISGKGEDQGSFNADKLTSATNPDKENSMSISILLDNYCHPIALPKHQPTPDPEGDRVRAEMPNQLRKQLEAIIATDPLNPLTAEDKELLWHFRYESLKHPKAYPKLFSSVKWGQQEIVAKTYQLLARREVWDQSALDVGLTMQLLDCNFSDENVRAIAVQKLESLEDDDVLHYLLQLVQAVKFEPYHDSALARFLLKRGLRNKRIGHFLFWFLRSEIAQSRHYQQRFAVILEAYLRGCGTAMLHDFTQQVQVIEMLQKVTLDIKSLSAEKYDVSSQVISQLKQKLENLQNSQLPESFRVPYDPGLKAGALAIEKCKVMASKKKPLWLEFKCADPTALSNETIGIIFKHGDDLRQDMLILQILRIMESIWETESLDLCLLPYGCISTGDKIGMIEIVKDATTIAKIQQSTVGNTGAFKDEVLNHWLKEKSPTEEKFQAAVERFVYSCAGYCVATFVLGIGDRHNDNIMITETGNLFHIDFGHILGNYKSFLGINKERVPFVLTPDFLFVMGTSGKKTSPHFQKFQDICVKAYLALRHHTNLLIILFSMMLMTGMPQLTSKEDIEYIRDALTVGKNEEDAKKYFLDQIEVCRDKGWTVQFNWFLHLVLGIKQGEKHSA
Summary of the method: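 IC50 values come from a 4-parameter nonlinear fit of ADP-Glo luminescence, which measures ADP produced as PIP2 is phosphorylated to PIP3. The p120γ enzyme (2× stock 8 nM) sat with compound 1 h at rt before substrate (2× stocks: 50 μM ATP, 0.1 mg/ml PIP2) was added. Phosphorylation then proceeded 60 min at rt.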

PI3Kγ = biological target: T2, PI3Kγ (Homo sapiens, UniProt P48736); test: PI3Kγ cellular assay in THP-1 cells (AKT pS473 AlphaLISA); assay type: cell-based
T2 construct: host or cells: THP-1
T2 sequence (P48736 whole entry): as above
Summary of the method: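 Endogenous AKT S473 phosphorylation, detected by AlphaLISA in lysates, serves as the PI3Kγ activity read-out in stimulated, serum-starved THP-1 cells (1.8×10^5/well).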

[1] = Table 1, rhMCP-1 stimulated AKT pS473, read-out: cellular potency (PI3Kγ IC50)
[2] = Table 2, rhMCP-1 stimulated AKT pS473, read-out: cellular potency (PI3Kγ IC50)

pIC50 (PI3Kγ (p120γ); Table 1, p120γ) | pIC50 (PI3Kγ; [1]) | pIC50 (PI3Kγ (p120γ); Table 2, p120γ) | pIC50 (PI3Kγ; [2]) | SMILES
> 7.00 | > 7.00 | – | – | C[C@@H](C1CC1)N1Cc2cc(-c3ccn4nc(N)c(C(=O)NC5CC5)c4n3)cc(Cl)c2C1=O [Example 162, 2-Amino-5-{7-chloro-2-[(1S)-1-cyclopropylethyl]-1-oxo-2,3-dihydro-1H-isoindol-5-yl}-N-cyclopropylpyrazolo[1,5-a]pyrimidine-3-carboxamide]
> 7.00 | > 7.00 | – | – | C[C@H](CO)NC(=O)c1c(N)nn2ccc(-c3cc(Cl)c4c(c3)CN([C@@H](C)C3CC3)C4=O)nc12 [Example 163, 2-Amino-5-{7-chloro-2-[(1S)-1-cyclopropylethyl]-1-oxo-2,3-dihydro-1H-isoindol-5-yl}-N-[(2R)-1-hydroxypropan-2-yl]pyrazolo[1,5-a]pyrimidine-3-carboxamide]
> 7.00 | > 7.00 | – | – | CC[C@H](N1Cc2cc(-c3ccn4nc(N)c(C(=O)N[C@H](C)CO)c4n3)cc(Cl)c2C1=O)C(F)(F)F [Example 164, 2-Amino-5-{7-chloro-1-oxo-2-[(2S)-1,1,1-trifluorobutan-2-yl]-2,3-dihydro-1H-isoindol-5-yl}-N-[(2R)-1-hydroxypropan-2-yl]pyrazolo[1,5-a]pyrimidine-3-carboxamide]
> 7.00 | > 7.00 | – | – | C[C@@H](C1CC1)N1Cc2cc(-c3ccn4nc(N)c(C(=O)NC5CC5)c4n3)cc(C3CC3)c2C1=O [Example 165, 2-Amino-N-cyclopropyl-5-{7-cyclopropyl-2-[(1S)-1-cyclopropylethyl]-1-oxo-2,3-dihydro-1H-isoindol-5-yl}pyrazolo[1,5-a]pyrimidine-3-carboxamide]
> 7.00 | > 7.00 | – | – | C[C@H](CO)NC(=O)c1c(N)nn2ccc(-c3cc4c(c(C5CC5)c3)C(=O)N([C@@H](C)C3CC3)C4)nc12 [Example 166, 2-Amino-5-{7-cyclopropyl-2-[(1S)-1-cyclopropylethyl]-1-oxo-2,3-dihydro-1H-isoindol-5-yl}-N-[(2R)-1-hydroxypropan-2-yl]pyrazolo[1,5-a]pyrimidine-3-carboxamide]
> 7.00 | > 7.00 | – | – | C[C@@H](C1CC1)N1Cc2cc(-c3ccn4nc(N)c(C(=O)N[C@@H](CO)C5CC5)c4n3)cc(C3CC3)c2C1=O [Example 167, 2-Amino-5-{7-cyclopropyl-2-[(1S)-1-cyclopropylethyl]-1-oxo-2,3-dihydro-1H-isoindol-5-yl}-N-[(1R)-1-cyclopropyl-2-hydroxyethyl]pyrazolo[1,5-a]pyrimidine-3-carboxamide]
> 7.00 | > 7.00 | – | – | CCc1cc(-c2ccn3nc(N)c(C(=O)N[C@@H](CO)C4CC4)c3n2)cc2c1C(=O)N([C@@H](C)C1CC1)C2 [Example 168, 2-Amino-N-[(1R)-1-cyclopropyl-2-hydroxyethyl]-5-{2-[(1S)-1-cyclopropylethyl]-7-ethyl-1-oxo-2,3-dihydro-1H-isoindol-5-yl}pyrazolo[1,5-a]pyrimidine-3-carboxamide]
> 7.00 | > 7.00 | – | – | CC(C)c1cc(-c2ccn3nc(N)c(C(=O)NC4CC4)c3n2)cc2c1C(=O)N([C@@H](C)C1CC1)C2 [Example 169, 2-Amino-N-cyclopropyl-5-{2-[(1S)-1-cyclopropylethyl]-1-oxo-7-(propan-2-yl)-2,3-dihydro-1H-isoindol-5-yl}pyrazolo[1,5-a]pyrimidine-3-carboxamide]
> 7.00 | > 7.00 | – | – | C[C@@H](C1CC1)N1Cc2cc(-c3ccn4nc(N)c(C(=O)NC5CC5)c4n3)cc(C(C)(C)O)c2C1=O [Example 170, 2-Amino-N-cyclopropyl-5-{2-[(1S)-1-cyclopropylethyl]-7-(2-hydroxypropan-2-yl)-1-oxo-2,3-dihydro-1H-isoindol-5-yl}pyrazolo[1,5-a]pyrimidine-3-carboxamide]
> 7.00 | > 7.00 | – | – | C[C@@H](C1CC1)N1Cc2cc(-c3ccn4nc(N)c(C(=O)N[C@H]5CC[C@@](C)(O)CC5)c4n3)cc(C(C)(C)O)c2C1=O [Example 171, 2-Amino-5-{2-[(1S)-1-cyclopropylethyl]-7-(2-hydroxypropan-2-yl)-1-oxo-2,3-dihydro-1H-isoindol-5-yl}-N-[cis-4-hydroxy-4-methylcyclohexyl]pyrazolo[1,5-a]pyrimidine-3-carboxamide]
– | – | > 7.00 | 6.00 to 7.00 | Cc1cc(-c2ccn3nc(N)c(C(=O)N[C@H]4CC[C@H](O)CC4)c3n2)cc2c1C(=O)N([C@@H](C)C1CC1)C2 [Example 172]
– | – | > 7.00 | 6.00 to 7.00 | Cc1cc(-c2ccn3nc(N)c(C(=O)N[C@@H](C)c4ccncc4)c3n2)cc2c1C(=O)N([C@@H](C)C1CC1)C2 [Example 173]
– | – | > 7.00 | 6.00 to 7.00 | Cc1cc(-c2ccn3nc(N)c(C(=O)N4CCC4CO)c3n2)cc2c1C(=O)N(C(C)C1CC1)C2 (centres unmarked) [Example 174]
– | – | > 7.00 | 6.00 to 7.00 | Cc1cc(-c2ccn3nc(N)c(C(=O)N[C@H](C)c4cnn(C)c4)c3n2)cc2c1C(=O)N([C@@H](C)C1CC1)C2 [Example 175]
– | – | > 7.00 | 6.00 to 7.00 | Cc1cc(-c2ccn3nc(N)c(C(=O)N[C@@H]4CCOC4)c3n2)cc2c1C(=O)N([C@@H](C)C1CC1)C2 [Example 176]
– | – | > 7.00 | 6.00 to 7.00 | Cc1cc(-c2ccn3nc(N)c(C(=O)N[C@H]4CCOC4)c3n2)cc2c1C(=O)N([C@@H](C)C1CC1)C2 [Example 177]
– | – | > 7.00 | 6.00 to 7.00 | Cc1cc(-c2ccn3nc(N)c(C(=O)N[C@@H](C)c4nccs4)c3n2)cc2c1C(=O)N([C@@H](C)C1CC1)C2 [Example 178]
– | – | > 7.00 | 6.00 to 7.00 | Cc1cc(-c2ccn3nc(N)c(C(=O)NC4CCNCC4)c3n2)cc2c1C(=O)N([C@@H](C)C1CC1)C2 [Example 179]
– | – | > 7.00 | 6.00 to 7.00 | Cc1cc(-c2ccn3nc(N)c(C(=O)NC4COC4)c3n2)cc2c1C(=O)N([C@@H](C)C1CC1)C2 [Example 180]
– | – | > 7.00 | 6.00 to 7.00 | Cc1cc(-c2ccn3nc(N)c(C(=O)NC4CCOCC4)c3n2)cc2c1C(=O)N([C@@H](C)C1CC1)C2 [Example 181]
– | – | > 7.00 | 6.00 to 7.00 | CO[C@H]1C[C@H](NC(=O)c2c(N)nn3ccc(-c4cc(C)c5c(c4)CN([C@@H](C)C4CC4)C5=O)nc23)C1 [Example 182]
– | – | > 7.00 | 6.00 to 7.00 | CC[C@H](CO)NC(=O)c1c(N)nn2ccc(-c3cc(C)c4c(c3)CN([C@@H](C)C3CC3)C4=O)nc12 [Example 183]
– | – | > 7.00 | 6.00 to 7.00 | Cc1cc(-c2ccn3nc(N)c(C(=O)N[C@H]4CC[C@H](N)CC4)c3n2)cc2c1C(=O)N([C@@H](C)C1CC1)C2 [Example 184]
– | – | > 7.00 | 6.00 to 7.00 | Cc1cc(-c2ccn3nc(N)c(C(=O)N[C@H]4C[C@H](N)C4)c3n2)cc2c1C(=O)N([C@@H](C)C1CC1)C2 [Example 185]
– | – | > 7.00 | 6.00 to 7.00 | Cc1cc(-c2ccn3nc(N)c(C(=O)NCCO)c3n2)cc2c1C(=O)N([C@@H](C)C1CC1)C2 [Example 186]
– | – | > 7.00 | 6.00 to 7.00 | Cc1cc(-c2ccn3nc(N)c(C(=O)NCC4(O)CC4)c3n2)cc2c1C(=O)N([C@@H](C)C1CC1)C2 [Example 188]
– | – | > 7.00 | 6.00 to 7.00 | Cc1cc(-c2ccn3nc(N)c(C(=O)NC4CCC4)c3n2)cc2c1C(=O)N([C@@H](C)C1CC1)C2 [Example 189]

SMILES | pIC50 (PI3Kγ (p120γ); Table 1, p120γ) | pIC50 (PI3Kγ; [1]) | pIC50 (PI3Kγ (p120γ); Table 2, p120γ) | pIC50 (PI3Kγ; [2])
Cc1cc(-c2ccn3nc(N)c(C(=O)N[C@H]4CC[C@H](C(=O)O)CC4)c3n2)cc2c1C(=O)N([C@@H](C)C1CC1)C2 [Example 187] | – | – | > 7.00 | 6.00 to 7.00
